{"source": "patent US9974776B2", "about": "“Estrogen receptor beta agonists for use in treating mesothelioma” (Karo Pharma AB, priority 2013, dated 2018)", "key": {"REN cells": {"system": "REN cells", "test": "Proliferation assay (Trypan blue viable cell count; wash-off and add-on experiments) in REN cells", "type": "cell-based, human", "description": "(§1) Cells were seeded at a density of 10×10^4 cells/well in 6-well plates in RPMI medium supplemented with 10% FBS, 100 μg/ml streptomycin and 10 μg/ml penicillin and incubated over-night at 37° C. in a humidified environment containing 5% CO2 to allow adherence. Following treatment cells were trypsinized and stained with Trypan blue. The number of cells considered viable (unstained cells) was counted in a Bürker haemocytometer within 5 minutes after staining.\nControl cultures were maintained in normal growth medium without added drug. The number of viable cells was determined as described for the proliferation assay.\nIn the add-on experiments the second drug was added directly to the cell culture medium without wash-off of the first drug. […] Control cultures were maintained in normal growth medium without added drug. The number of viable cells was determined as described for the proliferation assay."}, "MET5A cells": {"system": "MET5A cells", "test": "Proliferation assay in non-malignant mesothelial MET5A cells", "type": "cell-based", "description": "as §1\n(§2) Cell cultures were pretreated with Compound (I) for 1-16 hours (depending on experiment) followed by wash-off and then replenished with normal growth medium±cisplatin, pemetrexed or cisplatin/pemetrexed. Total incubation time was 24-72 hours (depending on experiment). Control cultures were maintained in normal growth medium without added drug. The number of viable cells was determined as described for the proliferation assay."}, "MMB cells": {"system": "MMB cells", "test": "Proliferation assay in MMB cells", "type": "cell-based", "conditions": "10 nM single agent, 24 and 48 hours", "description": "as §1"}, "[1]": {"test": "Treatment toxicity by mice body weights", "type": "in vivo", "conditions": "10 mg/kg/day s.c. during drug administration", "description": "Animals. CD1 nude mice (males, 6 weeks old; Charles River, Calco, Italy) received intraperitoneal (i.p.) injections of 2×10^6 luciferase transduced REN cells in 0.5 mL of RPMI medium. After anesthetization and i.p. injections of 0.3 mL of 15 mg/mL D-luciferin, tumor dimension and localization of luminescent cells was monitored using the In Vivo Imaging System (IVIS) series (Xenogen Corporation, Hopkinton, Mass., USA). Regions of interest were identified around the tumor sites and were quantified as total photon counts using Living Image software (Xenogen Corporation). The values of tumor sizes were obtained, subtracting luminescence signals of each weekly measurement by the average of all animals within a treatment group on the 15th day after inoculation (day when treatment started). To evaluate treatment toxicity, mice were weighed at the start and end of treatments. Mice were killed and necropsied after 20 days of treatment. In vivo experiments were approved by Istituto Scientifico Tumori (Genoa, Italy) ethical committee and conform to the relevant regulatory standards. Mice were maintained and handled under aseptic conditions, and were allowed access to food and water ad libitum."}, "PARP1 cleavage [2]": {"system": "PARP1 cleavage", "test": "Western blot of PARP1 cleavage in REN cells", "type": "cell-based, human", "description": "(§3) Cells were extracted with 1% NP-40 lysis buffer (1% NP-40, 150 mM NaCl, 50 mM Tris-HCl pH 8.5 mM EDTA, 10 mM NaF, 10 mM Na4P2O7, 0.4 mM Na3VO4) with freshly added protease inhibitors (10 μg/ml leupeptin, 4 μg/ml pepstatin and 0.1 Unit/ml aprotinin). For protein extraction from tissues, ˜100 mg of each sample were homogenized, using a Potter-Elvehjem homogenizer device, in 1% NP-40 lysis buffer. Lysates were centrifuged at 13.000×g for 10 minutes at 4° C. and the supernatants were collected and assayed for protein concentration with the Bio-Rad protein assay method.\n(§4) Proteins were separated by SDS-PAGE under reducing conditions. Following SDS-PAGE, proteins were transferred to nitrocellulose, reacted with specific antibodies and then detected with peroxidase-conjugate secondary antibodies and chemioluminescent ECL reagent. Densitometric analysis was performed using the GS 250 Molecular Image (Bio-Rad).\nLevels of PARP1, cleaved PARP1, AKT and phosphorylated AKT in REN cells treated for 24 hours with cisplatin (25, 50 and 100 μM) or pre-treated 2 hours with Compound (I) (10 nM) followed by wash-off and continued growth in normal medium±cisplatin (25, 50 and 100 μM), for an additional 24 hours were also determined by Western blot analysis and relative densitometry. Total AKT and Tubulin staining were used for normalization. PARP1 cleavage was analysed as it is an indicator of apoptotic cell death. As increased AKT activity has been implicated in the control of proliferation, apoptosis and cisplatin resistance (Pinton G., et al, PLoS One (2012) 7:e36856), AKT activation status following different treatments was also analysed."}, "AKT phosphorylation [3]": {"system": "AKT phosphorylation", "test": "Western blot of AKT phosphorylation in REN cells", "type": "cell-based, human", "conditions": "10 nM 2 hours pre-treatment, ± cisplatin", "description": "as §3, §4\nLevels of PARP1, cleaved PARP1, AKT and phosphorylated AKT in REN cells treated for 24 hours with cisplatin (25, 50 and 100 μM) or pre-treated 2 hours with Compound (I) (10 nM) followed by wash-off and continued growth in normal medium±cisplatin (25, 50 and 100 μM), for an additional 24 hours were also determined by Western blot analysis and relative densitometry. […] PARP1 cleavage was analysed as it is an indicator of apoptotic cell death. […]"}, "PARP1 cleavage [4]": {"system": "PARP1 cleavage", "test": "Western blot of PARP1 cleavage in MET5A cells", "type": "cell-based", "conditions": "10 nM 2 hours pre-treatment, cisplatin 25, 50, 100 μM", "description": "as §3, §4\n(§5) Levels of PARP1, cleaved PARP1, AKT and phosphorylated AKT in the MET5A cell cultures at 24 hours were also determined by Western blot analysis and relative densitometry."}, "AKT phosphorylation [5]": {"system": "AKT phosphorylation", "test": "Western blot of AKT phosphorylation in MET5A cells", "type": "cell-based", "conditions": "10 nM 2 hours pre-treatment", "description": "as §3, §4, §5"}, "MMP cells": {"system": "MMP cells", "test": "Proliferation assay (wash-off experiment) in MMP cells", "type": "cell-based, human", "conditions": "10 nM 2 hours, 50 μM cisplatin 24 hours", "description": "as §1, §2\n50 μM cisplatin was added to MMP cell cultures pre-treated for 2 hours with 10 nM Compound (I) (wash-off experiment). The number of viable cells at 24 hours was determined as described for the proliferation assay above. Control cultures were maintained in normal growth medium; growth medium plus Compound (I) (10 nM); and growth medium plus cisplatin (50 μM)."}, "PARP1 cleavage [6]": {"system": "PARP1 cleavage", "test": "Western blot of PARP1 cleavage in MMP cells", "type": "cell-based, human", "conditions": "10 nM two hours, wash-off, 50 μM cisplatin", "description": "as §3, §4\n(§6) Levels of PARP1, cleaved PARP1, AKT and phosphorylated AKT in the MMP cell cultures at 24 hours were also determined by Western blot analysis."}, "AKT phosphorylation [7]": {"system": "AKT phosphorylation", "test": "Western blot of AKT phosphorylation in MMP cells", "type": "cell-based, human", "conditions": "10 nM 2 hours pre-treatment, ± 50 μM cisplatin", "description": "as §3, §4, §6"}}, "note": "Entries after “also recorded” stand apart in the source; their conditions may differ."}
{"smiles": "Cc1noc(C)c1-c1c(/C(N)=N/O)c2ccccc2n1-c1ccc(O)cc1", "note": "[Compound (I)]", "values": [{"measurement": "anti-proliferative effect, pre-treatment then 20 μM cisplatin", "setting": "REN cells; 10 nM 2 hours, wash-off, 20 μM cisplatin for additional 24 hours", "result": "as efficacious as 100 μM cisplatin alone"}, {"measurement": "inhibitory effect on cell growth and viability, pre-treatment then cisplatin/pemetrexed", "setting": "REN cells; 10 nM 2 hours, wash-off, cisplatin 100 μM and pemetrexed 22 μM for additional 24 hours", "result": "strong synergistic inhibitory effect on cell growth and viability"}, {"measurement": "inhibitory effect on cell growth and viability, pre-treatment then cisplatin", "setting": "REN cells; 10 nM 2 hours, wash-off, cisplatin 100 μM for additional 24 hours", "result": "strong synergistic inhibitory effect on cell growth and viability"}, {"measurement": "anti-proliferative effect, pre-treatment then cisplatin 20-100 μM", "setting": "REN cells; 10 nM 2 hours, wash-off, cisplatin for additional 24 hours", "result": "most efficacious anti-proliferative effect was observed when Compound (I) pre-treatment was combined with the highest concentration of cisplatin (100 μM)"}, {"measurement": "enhancement of anti-proliferative effect of pemetrexed", "setting": "REN cells; 10 nM 2 hours, wash-off, pemetrexed 5-22 μM for additional 24 hours", "result": "No enhanced anti-proliferative effect"}, {"measurement": "synergy when cisplatin is given first (reverse order)", "setting": "REN cells; 10 nM Compound (I) added 2, 4, 8, 12 hours after start of 100 μM cisplatin, 24 hours", "result": "did not result in synergistic inhibition of cell growth and viability"}, {"measurement": "growth inhibition versus single agents, cisplatin given first", "setting": "REN cells; 10 nM Compound (I) added after 100 μM cisplatin, 24 hours", "result": "greater growth inhibition than cells treated with only one of the agents"}, {"measurement": "inhibition of proliferation, REN cells", "setting": "REN cells; 10 nM single agent, 24 and 48 hours", "result": "significantly (p≤0.05) inhibited proliferation"}, {"measurement": "growth inhibitory activity after brief exposure and wash-off", "setting": "REN cells; 10 nM, 2 hours exposure, total incubation 24 hours", "result": "significantly (p≤0.05) increased growth inhibitory activity relative to 1 hour exposure and exposures longer than 8 hours"}, {"measurement": "enhancement of anti-proliferative effect of cisplatin, add-on experiment", "setting": "REN cells; 100 μM cisplatin added 2, 4, 8, 12 hours after start of 10 nM Compound (I), 24 hours", "result": "greatest inhibitory effect obtained when adding cisplatin after 2 hours of Compound (I) pre-treatment"}, {"measurement": "concentration dependence of anti-proliferative effect after 2 hours pre-treatment", "setting": "REN cells; 0.4, 2 and 10 nM, wash-off, 24-72 hours", "result": "largest anti-proliferative effect was observed with the highest Compound (I) concentration used"}, {"measurement": "duration of inhibitory effect on REN cell proliferation", "setting": "REN cells; 2-hours pre-treatment with 0.4, 2 or 10 nM, wash-off, irrespective of concentration", "result": "at least 24 hours"}, {"measurement": "growth inhibition of REN cells", "setting": "REN cells; 24 hours treatment, range 1-100 nM, versus untreated cells", "result": "significantly (p≤0.05) reduced cell growth and viability in a dose-dependent manner"}, {"measurement": "dose of highest efficacy for growth inhibition", "setting": "REN cells; REN cells, 24 hours, range 1-100 nM tested", "result": 10, "unit": "nM"}, {"measurement": "isobologram analysis of combination with cisplatin", "setting": "REN cells; analysis of Example 4(b) results (FIG. 4F)", "result": "synergistic effect"}, {"measurement": "effect on cisplatin toxicity in MET5A cells", "setting": "MET5A cells; 10 nM 2 hours pre-treatment, wash-off, cisplatin 25, 50, 100 μM 24 hours", "result": "protective effect was observed when Compound (I) pre-treatment was combined with low doses of cisplatin; also recorded: diminished and/or counteracted the toxicity of cisplatin"}, {"measurement": "MET5A cell proliferation or viability, alone", "setting": "MET5A cells; 10 nM 2 hours, wash-off, normal medium 24 hours", "result": "no effect on MET5A cell proliferation or viability"}, {"measurement": "inhibition of proliferation, MET5A cells", "setting": "MET5A cells; 10 nM single agent, 24 and 48 hours, high endogenous ERβ", "result": "no inhibitory effect was observed"}, {"measurement": "inhibition of proliferation, MMB cells", "setting": "MMB cells", "result": "significantly (p≤0.05) inhibited proliferation"}, {"measurement": "toxicity assessed by changes of mice body weights", "setting": "[1]", "result": "not to be toxic"}, {"measurement": "appearance of cleaved PARP1, pre-treatment then cisplatin", "setting": "PARP1 cleavage [2]; 10 nM 2 hours prior to cisplatin (25, 50, 100 μM) 24 hours", "result": "greatest effect on the appearance of cleaved PARP1"}, {"measurement": "PARP1 cleavage, single agent", "setting": "PARP1 cleavage [2]; agent alone", "result": "neither cisplatin nor Compound (I) alone resulted in significant PARP1 cleavage"}, {"measurement": "AKT phosphorylation in REN cells", "setting": "AKT phosphorylation [3]", "result": "significantly reduced AKT phosphorylation both in the absence and in the presence of cisplatin"}, {"measurement": "percentage of cleaved PARP1 in MET5A cells", "setting": "PARP1 cleavage [4]", "result": "reduced the percentage of cleaved PARP1 in cells exposed to all concentrations of cisplatin"}, {"measurement": "basal pAKT levels in MET5A control cells", "setting": "AKT phosphorylation [5]; no cisplatin", "result": "no effect on basal pAKT levels"}, {"measurement": "effect on cisplatin-mediated inhibition of pAKT in MET5A cells", "setting": "AKT phosphorylation [5]; then cisplatin", "result": "antagonized the cisplatin-mediated inhibition of pAKT"}, {"measurement": "anti-proliferative effect in MMP cells, pre-treatment then cisplatin", "setting": "MMP cells", "result": "enhanced anti-proliferative effect of cisplatin was observed; also recorded: synergistic growth inhibition compared to Compound (I) or cisplatin alone"}, {"measurement": "level of cleaved PARP1 in MMP cells", "setting": "PARP1 cleavage [6]", "result": "most significant increase in the level of cleaved PARP1"}, {"measurement": "AKT phosphorylation in MMP cells", "setting": "AKT phosphorylation [7]", "result": "significantly reduced AKT phosphorylation both in the absence and in the presence of cisplatin"}]}
